Experimental data as given in the supplement of paper PMC10307832.

What was measured:
Experiment in all cases: relative viability (nuclei count vs DMSO), 5 days (fraction); higher = more cells survive
NCI-H2342 = tested on: NCI-H2342
Summary of the method: (§1)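 Relative viability equals treated-well nuclei counts divided by vehicle-well nuclei counts. Counts came from 4× images of lung cancer cell lines grown in 1536-well plates for 5 days after pin-tool dosing on the day after seeding. Dosing used one drug alone or a fixed anchor-drug dose plus five library-drug doses (not always all listed) in √10 steps, and values are medians of duplicate plates.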

NCI-H2405 = tested on: NCI-H2405
Summary of the method: as §1

LXF-289 = tested on: LXF-289
Summary of the method: as §1

NCI-H322M = tested on: NCI-H322M
Summary of the method: as §1

PC-14 = tested on: PC-14
Summary of the method: as §1

HCC-827 = tested on: HCC-827
Summary of the method: as §1

HCC-78 = tested on: HCC-78
Summary of the method: as §1

EKVX = tested on: EKVX
Summary of the method: as §1

LK-2 = tested on: LK-2
Summary of the method: as §1

NCI-H1975 = tested on: NCI-H1975
Summary of the method: as §1

RERF-LC-KJ = tested on: RERF-LC-KJ
Summary of the method: as §1

EPLC-272H = tested on: EPLC-272H
Summary of the method: as §1

NCI-H23 = tested on: NCI-H23
Summary of the method: as §1

NCI-H2126 = tested on: NCI-H2126
Summary of the method: as §1

SW 1573 = tested on: SW 1573
Summary of the method: as §1

LU99A = tested on: LU99A
Summary of the method: as §1

EMC-BAC-2 = tested on: EMC-BAC-2
Summary of the method: as §1

NCI-H1666 = tested on: NCI-H1666
Summary of the method: as §1

ChaGo-K-1 = tested on: ChaGo-K-1
Summary of the method: as §1

SW 900 = tested on: SW 900
Summary of the method: as §1

LCLC-103H = tested on: LCLC-103H
Summary of the method: as §1

SK-LU-1 = tested on: SK-LU-1
Summary of the method: as §1

## O=c1cc(N2CCOCC2)oc2c(-c3cccc4c3sc3ccccc34)cccc12 + O=C(CCCCCCC(=O)Nc1ccccc1)NO [Vorinostat] (partner 1 µM)
NCI-H2342; first compound 0.01 µM
  relative viability: 0.708
NCI-H2342; first compound 0.03162 µM
  relative viability: 0.828
NCI-H2342; first compound 0.1 µM
  relative viability: 0.748
NCI-H2342; first compound 0.3162 µM
  relative viability: 0.729
NCI-H2342; first compound 1 µM
  relative viability: 0.637
NCI-H2405; first compound 0.01 µM
  relative viability: 1.01
NCI-H2405; first compound 0.03162 µM
  relative viability: 1.04
NCI-H2405; first compound 0.1 µM
  relative viability: 1.04
NCI-H2405; first compound 0.3162 µM
  relative viability: 1.01
NCI-H2405; first compound 1 µM
  relative viability: 0.736
LXF-289; first compound 0.01 µM
  relative viability: 0.797
LXF-289; first compound 0.03162 µM
  relative viability: 0.789
LXF-289; first compound 0.1 µM
  relative viability: 0.693
LXF-289; first compound 0.3162 µM
  relative viability: 0.741
LXF-289; first compound 1 µM
  relative viability: 0.827
NCI-H322M; first compound 0.01 µM
  relative viability: 0.826
NCI-H322M; first compound 0.03162 µM
  relative viability: 0.92
NCI-H322M; first compound 0.3162 µM
  relative viability: 0.871
NCI-H322M; first compound 1 µM
  relative viability: 0.678
PC-14; first compound 0.01 µM
  relative viability: 0.682
PC-14; first compound 0.03162 µM
  relative viability: 0.75
PC-14; first compound 0.1 µM
  relative viability: 0.713
PC-14; first compound 0.3162 µM
  relative viability: 0.84
PC-14; first compound 1 µM
  relative viability: 0.768
HCC-827; first compound 0.01 µM
  relative viability: 0.897
HCC-827; first compound 0.03162 µM
  relative viability: 0.848
HCC-827; first compound 0.1 µM
  relative viability: 0.643
HCC-827; first compound 0.3162 µM
  relative viability: 0.779
HCC-827; first compound 1 µM
  relative viability: 0.774
HCC-78; first compound 0.01 µM
  relative viability: 0.428
HCC-78; first compound 0.03162 µM
  relative viability: 0.406
HCC-78; first compound 0.1 µM
  relative viability: 0.44
HCC-78; first compound 0.3162 µM
  relative viability: 0.464
HCC-78; first compound 1 µM
  relative viability: 0.48
EKVX; first compound 0.01 µM
  relative viability: 0.723
EKVX; first compound 0.03162 µM
  relative viability: 0.748
EKVX; first compound 0.1 µM
  relative viability: 0.681
EKVX; first compound 0.3162 µM
  relative viability: 0.753
EKVX; first compound 1 µM
  relative viability: 0.736
LK-2; first compound 0.01 µM
  relative viability: 0.343
LK-2; first compound 0.03162 µM
  relative viability: 0.267
LK-2; first compound 0.1 µM
  relative viability: 0.345
LK-2; first compound 0.3162 µM
  relative viability: 0.233
LK-2; first compound 1 µM
  relative viability: 0.27
NCI-H1975; first compound 0.01 µM
  relative viability: 0.672
NCI-H1975; first compound 0.03162 µM
  relative viability: 0.69
NCI-H1975; first compound 0.1 µM
  relative viability: 0.733
NCI-H1975; first compound 0.3162 µM
  relative viability: 0.641
NCI-H1975; first compound 1 µM
  relative viability: 0.368
RERF-LC-KJ; first compound 0.01 µM
  relative viability: 0.76
RERF-LC-KJ; first compound 0.03162 µM
  relative viability: 0.694
RERF-LC-KJ; first compound 0.1 µM
  relative viability: 0.775
RERF-LC-KJ; first compound 0.3162 µM
  relative viability: 0.64
RERF-LC-KJ; first compound 1 µM
  relative viability: 0.707
EPLC-272H; first compound 0.01 µM
  relative viability: 0.539
EPLC-272H; first compound 0.03162 µM
  relative viability: 0.4
EPLC-272H; first compound 0.1 µM
  relative viability: 0.54
EPLC-272H; first compound 0.3162 µM
  relative viability: 0.358
EPLC-272H; first compound 1 µM
  relative viability: 0.5
NCI-H23; first compound 0.01 µM
  relative viability: 0.555
NCI-H23; first compound 0.03162 µM
  relative viability: 0.68
NCI-H23; first compound 0.3162 µM
  relative viability: 0.795
NCI-H23; first compound 1 µM
  relative viability: 0.537
NCI-H2126; first compound 0.01 µM
  relative viability: 0.84
NCI-H2126; first compound 0.03162 µM
  relative viability: 0.751
NCI-H2126; first compound 0.1 µM
  relative viability: 0.668
NCI-H2126; first compound 0.3162 µM
  relative viability: 0.734
NCI-H2126; first compound 1 µM
  relative viability: 0.771
SW 1573; first compound 0.01 µM
  relative viability: 0.572
SW 1573; first compound 0.03162 µM
  relative viability: 0.767
SW 1573; first compound 0.1 µM
  relative viability: 0.55
SW 1573; first compound 0.3162 µM
  relative viability: 0.614
SW 1573; first compound 1 µM
  relative viability: 0.592
LU99A; first compound 0.01 µM
  relative viability: 0.489
LU99A; first compound 0.03162 µM
  relative viability: 0.491
LU99A; first compound 0.1 µM
  relative viability: 0.446
LU99A; first compound 0.3162 µM
  relative viability: 0.512
LU99A; first compound 1 µM
  relative viability: 0.491
EMC-BAC-2; first compound 0.01 µM
  relative viability: 0.458
EMC-BAC-2; first compound 0.03162 µM
  relative viability: 0.512
EMC-BAC-2; first compound 0.1 µM
  relative viability: 0.533
EMC-BAC-2; first compound 0.3162 µM
  relative viability: 0.496
EMC-BAC-2; first compound 1 µM
  relative viability: 0.198
NCI-H1666; first compound 0.01 µM
  relative viability: 0.985
NCI-H1666; first compound 0.03162 µM
  relative viability: 1.04
NCI-H1666; first compound 0.1 µM
  relative viability: 1.19
NCI-H1666; first compound 0.3162 µM
  relative viability: 1.03
NCI-H1666; first compound 1 µM
  relative viability: 1.04
ChaGo-K-1; first compound 0.01 µM
  relative viability: 0.69
ChaGo-K-1; first compound 0.03162 µM
  relative viability: 0.785
ChaGo-K-1; first compound 0.1 µM
  relative viability: 0.578
ChaGo-K-1; first compound 0.3162 µM
  relative viability: 0.813
ChaGo-K-1; first compound 1 µM
  relative viability: 0.789
SW 900; first compound 0.03162 µM
  relative viability: 0.508
SW 900; first compound 0.1 µM
  relative viability: 0.364
SW 900; first compound 0.3162 µM
  relative viability: 0.544
SW 900; first compound 1 µM
  relative viability: 0.359
LCLC-103H; first compound 0.01 µM
  relative viability: 0.739
LCLC-103H; first compound 0.03162 µM
  relative viability: 0.824
LCLC-103H; first compound 0.1 µM
  relative viability: 0.826
LCLC-103H; first compound 0.3162 µM
  relative viability: 0.826
LCLC-103H; first compound 1 µM
  relative viability: 0.857
SK-LU-1; first compound 0.01 µM
  relative viability: 0.79
SK-LU-1; first compound 0.03162 µM
  relative viability: 0.707
SK-LU-1; first compound 0.1 µM
  relative viability: 0.751
SK-LU-1; first compound 0.3162 µM
  relative viability: 0.778
SK-LU-1; first compound 1 µM
  relative viability: 0.733
